In a melting point compilation (Tetko et al.):

SMILES | melting point
O=C(c1cccc(F)c1)c1cccc(Cl)c1 | 62 to 64 °C
OCc1coc(-c2ccccc2)n1 | 79 to 81 °C
O=C(O)c1cccc(OCc2ccc(Cl)cc2)c1 | 171 to 173 °C
Cc1sc2ncnc(SCC(=O)O)c2c1C | 215 to 217 °C
CCOc1cc(C(=O)O)c([N+](=O)[O-])cc1OC | 213 to 215 °C
ClCc1csc(Cc2ccc(Cl)cc2)n1 | 68 to 70 °C
Cc1ccc(N)cc1NC(=O)CN1CCCCC1 | 108 to 110 °C
NS(=O)(=O)N1CCOc2ccccc21 | 135 to 137 °C
O=C(O)c1cccc(OCC(F)(F)F)c1 | 104 to 106 °C
Cc1cc(=O)[nH]c(-c2ccnc(Cl)c2)n1 | 269 to 271 °C
O=C(O)c1ccc(S(=O)(=O)Nc2ccncc2)cc1 | 297 to 299 °C
O=S(=O)(Cl)c1cccc2ncccc12 | 121 to 123 °C
Cc1cc(C#N)ccc1S(=O)(=O)Cl | 64 to 66 °C
CSC(C(=O)O)C(C)(C)C (centres undefined) | 83 to 85 °C
O=C(O)c1cccc(NS(=O)(=O)c2ccc3ccccc3c2)c1 | 205 to 207 °C
OCc1ccnc(-c2ccccc2)n1 | 43 to 45 °C
CN1C(=O)CCC(C(=O)O)C1c1cnn(C)c1 (centres undefined) | 225 to 227 °C
CC(NC(=O)Nc1ccccc1)C(=O)O (centres undefined) | 180 to 182 °C
COc1cc(NC(=O)C2CCCCC2)c(C(=O)O)cc1OC | 155 to 157 °C
O=C(O)c1cc(Cl)c(Cl)cc1C(=O)O | 201 to 203 °C
Cc1ccsc1C(N)=S | 117 to 119 °C
N#Cc1cccnc1-n1cccn1 | 114 to 116 °C
Cc1sc(C(N)=O)cc1N | 179 to 181 °C
Cc1sc(N)c(C(=O)O)c1C | 120 to 122 °C
O=c1[nH]cnc2c1CCNC2 | 251 to 253 °C
COc1cc(S(=O)(=O)Nc2ccc3c[nH]nc3c2)ccc1Br | 199 to 201 °C

SMILES | melting point
Nc1ccc(Oc2cccc(Cl)c2)cc1 | 41 to 43 °C
N#CCCN(C(=O)CCC(=O)O)c1ccccc1 | 98 to 100 °C
COc1ccc(-c2nc(N)sc2C)cc1OC | 185 to 187 °C
O=C(O)Cc1coc(-c2ccc(F)cc2)n1 | 166 to 168 °C
COc1cc(-c2nnc(S)o2)cc(OC)c1OC | 97 to 99 °C
FC(F)(F)c1ccc2c(c1)NCCO2 | 94 to 96 °C
O=C1c2ccccc2C(=O)N1CCc1ncc[nH]1 | 243 to 245 °C
O=C(Nc1cccc(Br)c1)C1CCNCC1 | 178 to 180 °C
NC(=S)NN=Cc1cccs1 | 161 to 163 °C
Clc1nc(CN2CCOCC2)nc2sc3c(c12)CCC3 | 103 to 107 °C
Cc1ccc(N)cc1S(=O)(=O)Nc1cccc(Cl)c1 | 158 to 160 °C
CCOC(=O)C1=NN(c2ccccc2)C(C#N)C1 (centres undefined) | 99 to 101 °C
CN1CC(C(=O)O)Cc2ccccc21 (centres undefined) | 209 to 211 °C
O=C(O)c1cccc(OCc2cccs2)c1 | 147 to 149 °C
O=C(O)c1cc(Br)c2c(c1)OCCO2 | 258 to 260 °C
CCOc1ccc2ccccc2c1CO | 49 to 51 °C
O=C(O)CCNC(=O)c1ccc(F)cc1 | 133 to 135 °C
NS(=O)(=O)Cc1ccccc1Br | 118 to 120 °C
Cc1ccc(-n2nc(C)c(CC(=O)O)c2C)cc1Cl | 146 to 148 °C
NC(=S)NCc1ccc(Br)cc1 | 159 to 161 °C
Cc1ccc(S(=O)(=O)N2CCCCC2)cc1NC(=O)CCl | 107 to 109 °C
Cn1cc(-c2nc3ccccn3c2N)cn1 | 149 to 151 °C
CN1CCN(Cc2ccc(N)cc2)CC1 | 96 to 98 °C
COC(=O)c1cncc(I)c1 | 79 to 81 °C
Cc1cc(C(=O)CCl)c(C)[nH]1 | 143 to 145 °C
Cc1ccc(NC(=O)C(=O)NN)cc1 | 204 to 206 °C

SMILES | melting point
O=C(Cc1ccc(O)cc1)NCCO | 134 to 136 °C
Cc1cccc(C(C)C)c1NC(=O)C(C)Cl (centres undefined) | 126 to 128 °C
S=C(c1cn(-c2ccccc2)nc1-c1ccccc1)N1CCCCC1 | 124 to 126 °C
Nc1ccc(Cl)c(C(=O)NCc2cccs2)c1 | 69 to 71 °C
O=C(Cc1ccc(Cl)cc1)N1CCNCC1 | 105 to 107 °C
NCC(O)c1ccc(F)c(F)c1 (centres undefined) | 53 to 55 °C
C#CCOc1ccccc1C#N | 77 to 79 °C
CNC(=O)c1cccc(C#N)c1 | 140 to 142 °C
COc1ccc(C(O)CCC(=O)O)cc1 (centres undefined) | 92 to 94 °C
O=C(CC(F)(F)F)c1ccc(F)cc1F | 46 to 48 °C
Nc1cc(C(=O)O)cc(Cl)n1 | 289 to 291 °C
Cc1c(N)cccc1COC1CCCCC1 | 54 to 56 °C
O=C1c2ccc([N+](=O)[O-])cc2C(=O)N1c1ccncc1 | 259 to 261 °C
NNc1ccc(C(F)(F)F)cn1 | 61 to 63 °C
CCc1nc(N)[nH]c(=S)n1 | 239 to 241 °C
O=C(O)CNS(=O)(=O)c1cccc2c1N=S=N2 | 270 to 272 °C
CCn1nc(N)cc1C(F)(F)F | 54 to 56 °C
CCCOc1ccc2[nH]cc(CO)c2c1 | 89 to 91 °C
NS(=O)(=O)c1ccc(CN=C=S)cc1 | 159 to 161 °C
O=C1Nc2cc(F)c(Br)cc2C1=O | 266 to 268 °C
CN1C(=O)CC(C(=O)O)C1c1cccs1 (centres undefined) | 139 to 141 °C
c1cc2c(cn1)CCN2 | 77 to 79 °C
CC(C)Oc1ccc(/C=C/C(=O)O)cc1 | 156 to 158 °C
NCC(O)c1ccccc1F (centres undefined) | 62 to 64 °C
Cc1ccccc1-n1c(C)cc(C(=O)CCl)c1C | 65 to 67 °C
CC(C)NC(=O)CSc1ccccc1C(=O)O | 181 to 185 °C

SMILES | melting point
CCCC(=O)Nc1nc2ccc(N)cc2s1 | 182 to 184 °C
O=C(c1ccccc1)c1ccc(Cl)cc1O | 75 to 77 °C
NC(=O)NCC1CCCCC1 | 168 to 170 °C
Cc1c(N)cccc1CN1CCSCC1 | 80 to 82 °C
Cc1ccccc1-n1c(C)cc(C(=O)O)c1C | 127 to 129 °C
Cc1ccc(N2N=C(C(=O)O)NCC2=O)cc1 | 98 to 100 °C
COc1ccc(C(N)c2cccc(S(C)(=O)=O)c2)cc1 (centres undefined) | 80 to 82 °C
CC1CCCC(NC(=O)NC(=O)CCl)C1C (centres undefined) | 131 to 133 °C
CC(O)(C(=O)O)c1cccc2ccccc12 (centres undefined) | 145 to 147 °C
NC(=O)c1ccccc1N1CCC(N)C1 (centres undefined) | 138 to 140 °C
C=CC(=O)Nc1cc(OC)c(Cl)cc1OC | 124 to 126 °C
N#CCc1nc2scc(-c3ccccc3)c2c(=O)[nH]1 | 279 to 281 °C
CN(CCC(N)=S)C(=O)OC(C)(C)C | 79 to 81 °C
O=C(CC(F)(F)F)c1cc(F)ccc1F | 45 to 47 °C
CN(CCO)CC(=O)O | 136 to 138 °C
NNC(=O)C1COc2ccccc2O1 (centres undefined) | 111 to 113 °C
CC(NC(=O)CNC(=O)CCl)c1ccc(F)cc1 (centres undefined) | 137 to 139 °C
Clc1ccc(-c2n[nH]cc2Br)cc1 | 140 to 142 °C
O=[N+]([O-])c1ccn(CCCBr)n1 | 35 to 37 °C
O=S(=O)(c1ccc2c(c1)CCN2)N1CCOCC1 | 173 to 177 °C
CC(Sc1ccccc1Cl)C(=O)O (centres undefined) | 50 to 52 °C
Cc1[nH]n(C(N)=S)c(=O)c1CCO | 153 to 155 °C
Nc1cc(I)ccc1O | 135 to 137 °C
O=C(CO)N1CCOCC1 | 77 to 79 °C
COc1ccc(-c2csc(N)n2)cc1F | 185 to 187 °C
O=c1sc2ccccc2nc1NO | 244 to 246 °C
